The values that follow come from article PMC4546618, “Casitas B-Lineage Lymphoma RING Domain Inhibitors Protect Mice against High-Fat Diet-Induced Obesity and Insulin Resistance” (PLoS ONE, 2015).

Like-named read-outs stand apart in the source and are kept apart here. Where a SMILES comes first, the peptide text is derived from it. [ ]: non-standard residue; d: D form. Pro(trans-4-F) = O=C(O)[C@@H]1C[C@@H](F)CN1

One data set deals with mice. Description: Acute toxicity in mice. Format: in vivo. Particulars: up to 15 mg/kg i.p.; for signs of acute toxicity: 72 hours; for death of animals: another 14 days following the initial examination; for H&E staining of livers, spleens and kidneys: end of experiment. How it is done:
(§1) All experiments were approved by the institutional Animal Care and Use Committee (Chengdu Medical College, China). All experiments were carried out in 10-week-old male mice maintained on the C57BL/6 background. All the animals were kept on a 12-h light/dark cycle with free access to food and water.
The control group (n = 10) received vehicle only. Eight groups (10 mice each) were treated with increasing doses of either peptide 1, 3, 10, 34, 2, 60, 49, and 51 up to 15 mg/kg by i.p. Number of death, sedation, spontaneous motor activity, alertness, ptosis, dyspnea, convulsion, diarrhea, urination, postural reflex, piloerection, nociception, grooming, vocalization, rearing, climbing and aggression were observed every 12 hours for 72 h. Animals were maintained for another 14 days after the initial examination. We planned to sacrifice the animals if they show severe signs of pain or distress, a body weight loss in excess of 15% of its body weight, or a deterioration of the body condition score to BC2(-) or below. However, none of the animals qualified for the mentioned the symptoms. No animals died during the whole study. At the end of the experiment, animals were euthanized by CO2 asphyxiation followed by cervical dislocation, the livers, spleens and kidneys were collected and formalin-fixed paraffin-embedded for H&E staining.

Data set [1] has as its system mice fed a high-fat diet. Description: High-fat diet-induced obesity: body weight, food intake, body composition, adipocyte volume. Particulars: daily i.p. 5 mg/kg; for percentage of perigonadal fat mass / adipocyte volume: 12 weeks; for percentage of perigonadal fat mass: NMR, vehicle 8 ± 0.8%; for adipocyte volume: adipocytes from epididymal fat pad, vehicle 510 ± 42 pL. It counts as in vivo. How it is done:
as §1
(§2) Animals (n = 90) were randomly assigned to one of the nine groups (Table 1). Animals were fed ad libitum with a high-fat diet (60% of caloric intake from fat (70% saturated fat), 20% from carbohydrates, and 20% from protein) before experiments and for another 12 weeks during the experiments. Food intake was measured manually on a daily basis. Eight groups of animals were treated with indicated peptides with a daily i.p. injection at 5 mg/kg and one group of animals were treated with vehicle.
Body composition was measured using nuclear magnetic resonance (NMR) technology at Chengdu College core facility. Epididymal fat pads were excised and adipocytes were isolated. Cells were then fixed using 2% OsO4 in PBS overnight at 37°C [2].

Data set [2] is described as follows: Pharmacokinetic studies, plasma concentration after i.p. injection. Format: in vivo. Particulars: mice, i.p. 4 mg/kg; for Cmax: male, C57BL/6, mouse, plasma, ip, read-out: maximum concentration in plasma. The method, then: as §1
Peptides (1, 3, 10, 34, 2, 60, 49, and 51) were dissolved in sterile aqueous 5% dextrose and administered to mice by i.p. injection (4 mg/kg). Blood samples were collected from the tail tip at 0, 0.5, 1, 6, 12, 18, 24 and 48 hours. Plasma samples were harvested by centrifugation and stored at -80°C until assayed. Peptide concentrations in plasma were determined by Reversed-Phase High-Performance Liquid Chromatography (RP-HPLC) with electrospray ionization mass spectrometric ([…]) detection. Samples were assayed with a series of 8 calibration standards of peptide in plasma at concentrations ranging from 50 to 6000 μg/L. Peptide concentrations were determined by comparing to the standards.

The target in the next data set is T1, Cbl (RING) protein (Homo sapiens, UniProt P22681).
T1 construct: including the linker and RING domain (codon 358–457); GST (Glutathione S-Transferase); made in house
T1 sequence (P22681 358-457): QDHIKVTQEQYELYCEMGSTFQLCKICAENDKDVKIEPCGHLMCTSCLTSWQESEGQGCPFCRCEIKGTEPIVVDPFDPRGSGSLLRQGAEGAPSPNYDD
Description: Fluorescence polarization (FP) assay, competition with FITC-βA-PFKPP-NH2 probe. It counts as binding. Particulars: probe FITC-βA-PFKPP-NH2 100 nmol/L, Cbl (RING) protein 3 μmol/L, PBS pH 7.4. In outline:
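GST-tagged c-Cbl linker plus RING domain (codons 358–457), 3 μmol/L, was mixed with 100 nmol/L FITC-βA-PFKPP-NH2 probe in PBS pH 7.4 with 0.01% Triton X-100. Peptides were added as 10–0.078 μmol/L solutions (half-fold dilutions). Polarization was read at ex 485/em 538 nm, and ΔmP, Kd and Ki were estimated from fitted data.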

For data set [3], the system named is mice fed a high-fat diet. Description: Indirect energy expenditure and physical activity measurement. Format: in vivo. Particulars: after 12 weeks daily i.p. 5 mg/kg on high-fat diet; for Oxygen consumption VO2: vehicle 4.15 ± 0.55; for Ambulatory day activity / Ambulatory night activity: photobeam break counts; for Ambulatory day activity: vehicle 2,069 ± 705; for Ambulatory night activity: vehicle 6,289 ± 1,216. The method, then: as §1, §2
After receiving 12 weeks of treatment as described above, rates of oxygen consumption (VO2) was measured using a four-chamber indirect calorimeter (Langguan, China, air flow of 0.5 l/min). A total of 2-hour measurement for each animal was conducted at 15-minuate intervals under room temperature (22°C). Ambulatory activity was estimated by counting the number of photobeam breaks in a three-sensor chamber instrument (Rui Pharm, China), and the cumulative ambulatory activity counts were recorded every hour. A total of 12 h-day time and 12 h-night activity were recorded for each animal.

Data set [4] has as its system mice fed a high-fat diet. Description: Glucose tolerance test after 12 weeks of treatment on high-fat diet. It counts as in vivo. Particulars: overnight fasted mice, 2 g/kg glucose i.p., after 12 weeks daily i.p. 5 mg/kg on high-fat diet. How it is done:
as §1, §2
After receiving 12 weeks of treatment as described above, glucose tolerance tests were performed in overnight fasted mice. Each mouse received a 2 g/kg glucose through i.p. Blood samples were obtained from the tail tip at 0, 30, 60, 90, and 120 min. Insulin concentrations were measured using mouse insulin Elisa kits (ChrystalChem) using mouse standards. Glucose levels were measured using a glucometer (Roche).

In the case of `CC(=O)N[C@@H](CCCCN)C(=O)N1C[C@H](F)C[C@H]1C(=O)N[C@@H](C)C(=O)N[C@H](C(=O)N[C@@H](CCCCN)C(N)=O)[C@@H](C)O` [Peptide 51, Ac-K(t)ATK-NH2] (Ac-K[Pro(trans-4-F)]ATK-NH2), in the data set with mice, the “signs of acute toxicity” value was “did not show vital signs of acute toxicity”; the death of animals entry is “None of the animals died”; the “H&E staining of livers, spleens and kidneys” value is given as “does not show any sign of injuries”. In the data set on mice fed a high-fat diet [1] (12-week feeding period), the “body weight gain vs vehicle, parental and negative control peptide groups” value was “significant differences in body weight gain”. Further, in the data set with mice fed a high-fat diet [1], the “percentage of perigonadal fat mass” value worked out at 4.0 ± 0.8% and the adipocyte volume is reported as 250 ± 40 pL. In addition, the Cmax in data set [2] (observed in 60 min) was found to be 4620 ng/mL. Moreover, the “plasma concentrations compared to the parental peptides 1 and 2” value in data set [2] (at each time point after 1 hour) is “greater plasma concentrations”. On Cbl (RING) protein, the affinity corresponds to a Ki of 3.8 ± 1.1 µM. Moreover, in the data set with mice fed a high-fat diet [3], the “Oxygen consumption VO2” value was found to be 5.99 ± 0.95 mL/g/h, the Ambulatory day activity is 4,953 ± 1,014 per 12 h and the Ambulatory night activity was 19,251 ± 3,058 per 12 h. In the data set on mice fed a high-fat diet [4], the “blood insulin levels compared to the vehicle group” value is on record as “significant reduction in blood insulin levels” and the “glucose tolerance compared to the vehicle group” value is given as “better glucose tolerance”.
On to Ac-PFKPP-NH2 [Peptide 1, Ac-PFKPP-NH2], for which, in the data set on mice, the “signs of acute toxicity” value is reported as “did not show vital signs of acute toxicity”; the death of animals result was “None of the animals died”; the “H&E staining of livers, spleens and kidneys” value is “does not show any sign of injuries”. Also, in the data set on mice fed a high-fat diet [1], the “percentage of perigonadal fat mass” value is 6.2 ± 0.7% and the adipocyte volume came to 430 ± 35 pL. Further, in data set [2] (observed in 30 min), the Cmax stood at 3080 ng/mL. This compound also yielded a Ki at Cbl (RING) protein of 7.2 ± 0.5 µM. For the same compound, in the data set with mice fed a high-fat diet [3], the “Oxygen consumption VO2” value is 3.95 ± 0.22 mL/g/h, the Ambulatory day activity is reported as 2,152 ± 865 per 12 h and the Ambulatory night activity is 5,941 ± 1,355 per 12 h. Besides, the “glucose tolerance compared to the vehicle group” value in the data set on mice fed a high-fat diet [4] is listed as “not statistically significant”.
